Assay results taken from BindingDB's records for doi:10.1016/s0960-894x(98)00676-3 (Tokushima Bunri University, 1999).
Structures can show the parent of a compound that is named as a salt.

Target: Arachidonate 5-lipoxygenase (Rattus norvegicus)
Assay: Evaluated for inhibitory activity against RBL-1 cell 5-lipoxygenase in rat

| IC50 | Structure (SMILES) |
| --- | --- |
| 820 nM | Cc1cc(OCCN2CCN(C(c3ccccc3)c3ccccc3)CC2)c(C)c(C)c1O [4-[2-(4-Benzhydryl-piperazin-1-yl)-ethoxy]-2,3,6-trimethyl-phenol; hydrochloride] |
| 426 nM | Cc1cc(OCCCN2CCN(C(c3ccccc3)c3ccccc3)CC2)c(C)c(C)c1O [4-[3-(4-Benzhydryl-piperazin-1-yl)-propoxy]-2,3,6-trimethyl-phenol; hydrochloride] |
| 1060 nM | Cc1cc(OCCCCCCCCN2CCN(C(c3ccccc3)c3ccccc3)CC2)c(C)c(C)c1O [4-[8-(4-Benzhydryl-piperazin-1-yl)-octyloxy]-2,3,6-trimethyl-phenol; hydrochloride] |

| Structure (SMILES) | IC50 |
| --- | --- |
| Cc1cc(OCCCCN2CCN(C(c3ccccc3)c3ccccc3)CC2)c(C)c(C)c1O [4-[4-(4-Benzhydryl-piperazin-1-yl)-butoxy]-2,3,6-trimethyl-phenol; hydrochloride] | 358 nM |
